US12252481B2, “Anti-viral compounds” (Aligos Therapeutics, Inc., priority 2021, dated 2025)
Where two headings read alike, the source gives them in different places.

Tests used:
[1] = test system: SARS-CoV-2-GHB-03021/2020; format: cell-based; conditions: read-out: VeroE6 + CP (EC50)
[2] = test system: human beta-coronavirus OC43; experiment: OC43 coronavirus antiviral assay in HeLa cells (cytopathic effect, cell-titer-glo); format: cell-based; conditions: Betacoronavirus 1, OC43, HeLa, 144 h, 6 days at 33° C., read-out: EC50 (class)
SARS-Cov-2 3CLpro = biological target: T1, SARS-Cov-2 3CLpro (Severe acute respiratory syndrome coronavirus 2, UniProt P0DTD1); experiment: biochemical; conditions: 3CLpro, 30 mins preincubation, SAMDI-MS; read-out: SARS-Cov-2 IC50 (class)
T1 construct: 3CLpro and HRV3C was added using a Multidrop Combi

human cathepsin L = biological target: T2, human cathepsin L (Homo sapiens, UniProt P07711); experiment: Cathepsin L assay (Z-FR-AMC fluorescence); format: biochemical; conditions: 10 pM human cathepsin L, 30 mins preincubation, Z-FR-AMC 2 μM
T2 construct: purchased R&D Systems
T2 sequence (P07711 114-333): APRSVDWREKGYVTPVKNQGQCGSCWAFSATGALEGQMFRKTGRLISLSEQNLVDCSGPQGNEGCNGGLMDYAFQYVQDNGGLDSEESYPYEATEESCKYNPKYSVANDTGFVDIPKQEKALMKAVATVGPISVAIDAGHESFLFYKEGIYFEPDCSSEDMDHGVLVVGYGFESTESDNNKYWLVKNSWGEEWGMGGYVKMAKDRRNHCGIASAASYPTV
Procedure: For the cathepsin L assay, 10 pM of human cathepsin L (R&D Systems; Minneapolis, MN) was preincubated for 30 mins with test compounds. Reactions were initiated by the addition of a peptide substrate Z—FR-AMC (final concentration 2 μM, Anaspec; Fremont, CA). Fluorescence was measured at 2-minute intervals for 30 mins using a 355/460 excitation/emission filter module on an Envision plate reader (Perkin Elmer; Waltham, MA). The IC50 values were calculated for each assay by fitting the curves using a four-parameter equation in GraphPad Prism.

HRV3C = biological target: T3, HRV3C (Human rhinovirus 14, UniProt P03303); experiment: biochemical; set-up: species or system HRV; conditions: HRV3C, 30 mins preincubation, SAMDI-MS; read-out: HRV IC50 (bound)
T3 construct: 3CLpro and HRV3C was added using a Multidrop Combi
T3 sequence (P03303 1538-1719): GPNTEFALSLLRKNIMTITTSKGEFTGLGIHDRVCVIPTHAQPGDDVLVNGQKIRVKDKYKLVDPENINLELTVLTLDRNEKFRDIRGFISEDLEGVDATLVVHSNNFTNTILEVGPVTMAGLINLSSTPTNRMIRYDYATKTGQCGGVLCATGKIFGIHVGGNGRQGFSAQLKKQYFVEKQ

[3] = test system: B.1.1.7 lineage SARS-CoV-2; experiment: microbe, parasite or virus in culture; format: cell-based
[4] = Severe acute respiratory syndrome coronavirus 2, 96 h; read-out: A549-dual_ACE2_TMPRSS2 (EC50)

Row | Compound | EC50 [1] | EC50 [2] | IC50 (SARS-Cov-2 3CLpro) | IC50 (human cathepsin L) | IC50 (HRV3C) | EC50 [3, 4] | EC50 ([3]; Severe acute respiratory syndrome coronavirus 2, 96 h, read-out: A549-dual_ACE2_TMPRSS2 (EC50))
1 | CC(C)(C)[C@H](NC(=O)C(F)(F)F)C(=O)N1C[C@H]2[C@@H]([C@H]1C(=O)N[C@H](C#N)C[C@@H]1CCNC1=O)[C@H]1CC[C@@H]2O1 (mixture of isomers) [Compound 58, (1S,3aR,4S,7R,7aS)-N-((S)-1-cyano-2-((S)-2-oxopyrrolidin-3-yl)ethyl)-2-((S)-3,3-dimethyl-2-(2,2,2-trifluoroacetamido)butanoyl)octahydro-1H-4,7-epoxyisoindole-1-carboxamide] | 1000 to 10000 nM | 1000 to 10000 nM | 200 to 2000 nM | ≥ 10000 nM | > 10000 nM | 1000 to 10000 nM | 
2 | CC(C)(C)[C@H](NC(=O)C(F)(F)F)C(=O)N1C[C@H]2[C@@H]([C@H]1C(=O)N[C@H](C#N)C[C@@H]1CCNC1=O)[C@H]1C=C[C@@H]2CC1 (mixture of isomers) [Compound 59] | < 100 nM | < 100 nM | < 20 nM | ≥ 10000 nM | > 10000 nM | < 100 nM | 
3 | CC(C)(C)[C@H](NC(=O)C(F)(F)F)C(=O)N1C[C@@H]2[C@@H]3CC[C@@H](C3)[C@@H]2[C@H]1C(=O)N[C@H](C#N)CC1Cn2nccc2NC1=O (relative stereo) [Compound 17a, (1S,3aR,4R,7S,7aS)-N-((S)-1-cyano-2-((R*)-5-oxo-4,5,6,7-tetrahydropyrazolo[1,5-a]pyrimidin-6-yl)ethyl)-2-((S)-3,3-dimethyl-2-(2,2,2-trifluoroacetamido)butanoyl)octahydro-1H-4,7-methanoisoindole-1-carboxamide] | < 100 nM | < 100 nM | < 20 nM | ≥ 10000 nM | > 10000 nM | 100 to 1000 nM | 
4 | CC(C)(C)[C@H](NC(=O)C(F)(F)F)C(=O)N1C[C@@H]2[C@@H]3CC[C@@H](C3)[C@@H]2[C@H]1C(=O)N[C@H](C#N)C[C@H]1Cn2nccc2NC1=O (relative stereo) [Compound 17b] | 100 to 1000 nM | 100 to 1000 nM | < 20 nM | ≥ 10000 nM | > 10000 nM | 100 to 1000 nM | 
5 | N#C[C@H](C[C@@H]1CCNC1=O)NC(=O)[C@@H]1[C@@H]2[C@H](CN1C(=O)[C@@H]1C[C@]13CCOc1ccccc13)[C@@H]1C=C[C@H]2C1 (relative stereo) [Compound 55, (1S,3aR,4S,7R,7aS)-N-((S)-1-cyano-2-((S)-2-oxopyrrolidin-3-yl)ethyl)-2-((2′R*,4S*)-spiro[chromane-4,1′-cyclopropane]-2′-carbonyl)-2,3,3a,4,7,7a-hexahydro-1H-4,7-methanoisoindole-1-carboxamide] | 100 to 1000 nM | 1000 to 10000 nM | 20 to 200 nM | ≥ 10000 nM | > 10000 nM | 100 to 1000 nM | 
6 | CC(C)(C)[C@H](NC(=O)C(F)(F)F)C(=O)N1C[C@H]2[C@@H]([C@H]1C(=O)NC(C#N)Cc1ccc[nH]c1=O)[C@H]1C=C[C@@H]2C1 (single isomer, unassigned) [Compound 57, (1S,3aR,4S,7R,7aS)-N-((S*)-1-cyano-2-(2-oxo-1,2-dihydropyridin-3-yl)ethyl)-2-((S)-3,3-dimethyl-2-(2,2,2-trifluoroacetamido)butanoyl)-2,3,3a,4,7,7a-hexahydro-1H-4,7-methanoisoindole-1-carboxamide] | 100 to 1000 nM | 100 to 1000 nM | 20 to 200 nM | ≥ 10000 nM | > 10000 nM | 100 to 1000 nM | 
7 | N#C[C@H](C[C@@H]1CCNC1=O)NC(=O)[C@@H]1[C@@H]2[C@H](CN1C(=O)[C@@H]1C[C@]13CCc1ccccc13)[C@@H]1C=C[C@H]2C1 (single isomer, unassigned) [Example 38, (1S,3aR,4S,7R,7aS)-N-((S)-1-cyano-2-((S)-2-oxopyrrolidin-3-yl)ethyl)-2-((1R*,2R*)-2′,3′-dihydrospiro[cyclopropane-1,1′-indene]-2-carbonyl)-2,3,3a,4,7,7a-hexahydro-1H-4,7-methanoisoindole-1-carboxamide] | 100 to 1000 nM | 1000 to 10000 nM |  | ≥ 10000 nM |  |  | 1000 to 10000 nM
8 | CC(C)(C)[C@H](NC(=O)[C@@H]1CC1(F)F)C(=O)N1C[C@H]2[C@@H]([C@H]1C(=O)N[C@H](C#N)C[C@@H]1CCNC1=O)[C@H]1C=C[C@@H]2C1 [Compound 41] | < 100 nM | < 100 nM | < 20 nM | ≥ 10000 nM | > 10000 nM | < 100 nM | 
9 | CC(C)(C)C(C(=O)N1C[C@H]2[C@@H]([C@H]1C(=O)N[C@H](C#N)C[C@@H]1CCNC1=O)[C@H]1C=C[C@@H]2C1)n1cc(C(F)(F)F)nn1 (stereo partly drawn) [Compound 42, (1S,3aR,4S,7R,7aS)-N-((S)-1-cyano-2-((S)-2-oxopyrrolidin-3-yl)ethyl)-2-(3,3-dimethyl-2-(4-(trifluoromethyl)-1H-1,2,3-triazol-1-yl)butanoyl)-2,3,3a,4,7,7a-hexahydro-1H-4,7-methanoisoindole-1-carboxamide] | 100 to 1000 nM | 100 to 1000 nM | 20 to 200 nM | ≥ 10000 nM | > 10000 nM | 100 to 1000 nM | 
10 | Cc1nnc(N[C@H](C(=O)N2C[C@H]3[C@@H]([C@H]2C(=O)N[C@H](C#N)C[C@@H]2CCNC2=O)[C@H]2C=C[C@@H]3C2)C(C)(C)C)o1 [Compound 43, (1S,3aR,4S,7R,7aS)-N-((S)-1-cyano-2-((S)-2-oxopyrrolidin-3-yl)ethyl)-2-((S)-3,3-dimethyl-2-((5-methyl-1,3,4-oxadiazol-2-yl)amino)butanoyl)-2,3,3a,4,7,7a-hexahydro-1H-4,7-methanoisoindole-1-carboxamide] | 100 to 1000 nM | 100 to 1000 nM | < 20 nM | ≥ 10000 nM | > 10000 nM | 100 to 1000 nM | 
11 | N#C[C@H](C[C@@H]1CCNC1=O)NC(=O)[C@@H]1[C@@H]2[C@H](CN1C(=O)c1cc3c(Cl)cc(Cl)cc3[nH]1)[C@@H]1C=C[C@H]2C1 [Compound 44, (1S,3aR,4S,7R,7aS)-N-((S)-1-cyano-2-((S)-2-oxopyrrolidin-3-yl)ethyl)-2-(4,6-dichloro-1H-indole-2-carbonyl)-2,3,3a,4,7,7a-hexahydro-1H-4,7-methanoisoindole-1-carboxamide] | 1000 to 10000 nM | 100 to 1000 nM | 20 to 200 nM | ≥ 10000 nM | > 10000 nM | 1000 to 10000 nM | 
12 | CC(C)(C)[C@H](NC(=O)C(F)(F)C(F)(F)F)C(=O)N1C[C@H]2[C@@H]([C@H]1C(=O)N[C@H](C#N)C[C@@H]1CCNC1=O)[C@H]1C=C[C@@H]2C1(F)F [Compound 129, (1R,2R,3S,6S,7S)—N-[(1S)-1-cyano-2-[(3S)-2-oxopyrrolidin-3-yl]ethyl]-4-[(2S)-3,3-dimethyl-2-(2,2,3,3,3-pentafluoropropanamido)butanoyl]-10,10-difluoro-4-azatricyclo[5.2.1.0^{2,6}]dec-8-ene-3-carboxamide] |  | < 100 nM | < 20 nM | ≥ 10000 nM | > 500 nM | < 100 nM | 
13 | COC(C)(C)[C@H](NC(=O)C(F)(F)C(F)(F)F)C(=O)N1C[C@H]2[C@@H]([C@H]1C(=O)N[C@H](C#N)C[C@@H]1CCNC1=O)[C@H]1C=C[C@@H]2C1 [Compound 131] |  | < 100 nM | < 20 nM | ≥ 10000 nM | > 500 nM | < 100 nM | 
14 | CC(C)(C)[C@H](NC(=O)CC(F)(F)F)C(=O)N1C[C@H]2[C@@H]([C@H]1C(=O)N[C@H](C#N)C[C@@H]1OCCNC1=O)[C@H]1C=C[C@@H]2C1 [Compound 132] |  | < 100 nM | < 20 nM | ≥ 10000 nM | > 500 nM | < 100 nM | 
15 | CC(F)(F)[C@H](NC(=O)C(F)(F)F)C(=O)N1C[C@H]2[C@@H]([C@H]1C(=O)N[C@H](C#N)C[C@@H]1CCNC1=O)[C@H]1C=C[C@@H]2C1 [Compound 133] |  | < 100 nM | < 20 nM | ≥ 10000 nM | > 500 nM | 100 to 1000 nM | 
16 | CC(C)(C)[C@H](NC(=O)C(F)(F)F)C(=O)N1C[C@H]2[C@@H]([C@H]1C(=O)N[C@H](C#N)C[C@@H]1CCNC1=O)[C@H]1C=C[C@@H]2C1(F)F [Example 82, (1S,3aS,4S,7R,7aR)—N-((S)-1-cyano-2-((S)-2-oxopyrrolidin-3-yl)ethyl)-2-((S)-3,3-dimethyl-2-(2,2,2-trifluoroacetamido)butanoyl)-8,8-difluoro-2,3,3a,4,7,7a-hexahydro-1H-4,7-methanoisoindole-1-carboxamide] |  | < 100 nM | < 20 nM | ≥ 10000 nM | > 10000 nM | < 100 nM | 
17 | C[C@@H](OCC1CC1)[C@H](NC(=O)C(F)(F)F)C(=O)N1C[C@H]2[C@@H]([C@H]1C(=O)N[C@H](C#N)C[C@@H]1CCNC1=O)[C@H]1C=C[C@@H]2C1 [Example 99] |  | < 100 nM | < 20 nM | ≥ 10000 nM | > 500 nM | < 100 nM | 
